Measured values reported in ChEMBL document CHEMBL1201862, “PubChem BioAssay data set” (2004).
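A five-concentration, 48-hour dose response in 96-well plates underlies each endpoint, interpolated linearly between surrounding concentrations. GI50: concentration for 50% inhibition of growth.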 Activity calls are given as the source filed them. Rule as the data show it: active = GI50 up to about 1.1 µM and inactive = higher.

Assays:
Assay in all cases: growth of human tumour cells (NCI), 48 h
[1] = system: 786-0
[2] = system: A549
[3] = system: ACHN
[4] = system: DLD-1
[5] = system: HCT-15
[6] = system: HT-29
[7] = system: KM12
[8] = system: MOLT-4
[9] = system: OVCAR-3
[10] = system: OVCAR-5
[11] = system: SF-295
[12] = system: SK-MEL-5
[13] = system: SNB-75
[14] = system: TK-10
[15] = system: U-251
[16] = system: UACC-257
[17] = system: UACC-62
[18] = system: SNB-19
[19] = system: CAKI-1
[20] = system: NCI/ADR-RES

Structure (SMILES) | GI50 [1] | GI50 [2] | GI50 [3] | GI50 [4] | GI50 [5] | GI50 [6] | GI50 [7] | GI50 [8] | GI50 [9] | GI50 [10] | GI50 [11] | GI50 [12] | GI50 [13] | GI50 [14] | GI50 [15] | GI50 [16] | GI50 [17] | GI50 [18] | GI50 [19] | GI50 [20]
O=[N+]([O-])c1ccc2nc(/C(=N/Nc3ccccc3)C(O)c3ccc(Cl)cc3Cl)c(O)nc2c1 (centres undefined) | > 100 µM (inactive) | > 100 µM (inactive) | > 100 µM (inactive) | > 100 µM (inactive) | > 100 µM | > 100 µM (inactive) | 49.3 µM (inactive) | 84.5 µM (inactive) | > 100 µM (inactive) | > 100 µM (inactive) | > 100 µM (inactive) | 21.8 µM (inactive) | > 100 µM (inactive) | > 100 µM (inactive) | > 100 µM (inactive) | > 100 µM (inactive) | 48.5 µM (inactive) | – | – | –
CN(C)CCC(/C=C/c1ccccc1)=N\Nc1ccc(Cl)cc1 | 2.39 µM (inactive) | 2.52 µM (inactive) | 2.23 µM (inactive) | 2.88 µM (inactive) | 3.01 µM | 3.86 µM (inactive) | 2.84 µM (inactive) | 2.23 µM (inactive) | 8.69 µM (inactive) | 1.08 µM (active) | 3.99 µM (inactive) | 14.7 µM (inactive) | 4.31 µM (inactive) | 2.89 µM (inactive) | 1.84 µM (inactive) | 4.18 µM (inactive) | 2.03 µM (inactive) | 11 µM (inactive) | – | –
N#Cc1c2c(c(N=[N+]=[N-])n3c1nc1ccccc13)CCCC2 | 1.9 µM (inactive) | 4.67 µM (inactive) | 2.16 µM (inactive) | 1.39 µM (inactive) | 2.07 µM | 1.98 µM (inactive) | 2.29 µM (inactive) | 1.62 µM (inactive) | 3.37 µM (inactive) | 6.07 µM (inactive) | 2.05 µM (inactive) | 18.3 µM (inactive) | 1.97 µM (inactive) | 2.77 µM (inactive) | 3.39 µM (inactive) | 1.71 µM (inactive) | – | 2.55 µM (inactive) | 2.72 µM (inactive) | –
Cc1ccc(S(=O)(=O)OCC23CCC(CC2)C2CC23)cc1 (centres undefined) | 61.2 µM (inactive) | 57.4 µM (inactive) | 61.7 µM (inactive) | 74.1 µM (inactive) | 47.6 µM | 31.5 µM (inactive) | – | 35.4 µM (inactive) | 31.9 µM (inactive) | > 100 µM (inactive) | 35.1 µM (inactive) | 24 µM (inactive) | 3.62 µM (inactive) | > 100 µM (inactive) | 50.9 µM (inactive) | 28.6 µM (inactive) | > 100 µM (inactive) | 96.6 µM (inactive) | 49.8 µM (inactive) | –
Cc1ccccc1NC(=O)c1cc2cc(/N=N/c3ccccc3C(=O)O)ccc2oc1=O | 27.1 µM (inactive) | 33.4 µM (inactive) | 33.3 µM (inactive) | 16.7 µM (inactive) | 10.6 µM | 15.2 µM (inactive) | 12.6 µM (inactive) | 18.7 µM (inactive) | 34.8 µM (inactive) | – | 18.5 µM (inactive) | 14.5 µM (inactive) | 11.5 µM (inactive) | 48.2 µM (inactive) | 21.4 µM (inactive) | 10.3 µM (inactive) | 4.7 µM (inactive) | > 10 µM (inactive) | – | –
CCc1cccc(C)c1NC(=O)CC1C(=O)Nc2ccccc2[S+]1[O-] (centres undefined) | 47.5 µM (inactive) | 39.1 µM (inactive) | 71.6 µM (inactive) | 47.6 µM (inactive) | 35.6 µM | 33.4 µM (inactive) | 54.2 µM (inactive) | 37.1 µM (inactive) | 57.3 µM (inactive) | > 100 µM (inactive) | 32.1 µM (inactive) | – | 33.5 µM (inactive) | > 100 µM (inactive) | 18.7 µM (inactive) | 31.8 µM (inactive) | – | 48.4 µM (inactive) | 53.6 µM (inactive) | –
CCCCOC(=O)NC(=O)c1cn(C2CCCCC2)c(=O)[nH]c1=O | 18.6 µM (inactive) | 38.5 µM (inactive) | 32.2 µM (inactive) | 36.9 µM (inactive) | > 100 µM | 59.4 µM (inactive) | 86.1 µM (inactive) | 98.6 µM (inactive) | 40.6 µM (inactive) | > 100 µM (inactive) | 54.3 µM (inactive) | – | – | 46.9 µM (inactive) | 28.4 µM (inactive) | > 100 µM (inactive) | 47.2 µM (inactive) | 26.5 µM (inactive) | > 10 µM (inactive) | –
O=C1CC(NC(=O)C(F)(F)F)c2c(Br)sc(N3CCC(c4ccccc4)CC3)c21 (centres undefined) | 20.8 µM (inactive) | 32.8 µM (inactive) | 28.1 µM (inactive) | – | 25.1 µM | 56.5 µM (inactive) | > 100 µM (inactive) | 4.68 µM (inactive) | 6.25 µM (inactive) | > 100 µM (inactive) | 4.48 µM (inactive) | 6.03 µM (inactive) | 69.3 µM (inactive) | 19 µM (inactive) | 6.76 µM (inactive) | 13.4 µM (inactive) | 20.4 µM (inactive) | 20.8 µM (inactive) | 12.9 µM (inactive) | 69 µM (inactive)
CCCCC1C=Cn2c(=O)oc3c(OC(C)C)c(C)c(O)c1c32 (centres undefined) | 1.16 µM (inactive) | 1.84 µM (inactive) | 0.413 µM (active) | – | 0.357 µM | 2.7 µM (inactive) | 1.49 µM (inactive) | 0.824 µM (active) | 2.75 µM (inactive) | 4.78 µM (inactive) | 0.982 µM (active) | 2 µM (inactive) | 0.466 µM (active) | 5.52 µM (inactive) | 1.14 µM (inactive) | 2.44 µM (inactive) | 0.929 µM (active) | 0.323 µM (active) | 0.409 µM (active) | 0.993 µM (active)
Cc1ccc(-c2cn3c(nc4ccccc43)c(-c3ccccc3)n2)cc1 | 15.1 µM (inactive) | > 100 µM (inactive) | 34 µM (inactive) | – | > 100 µM | > 100 µM (inactive) | > 100 µM (inactive) | > 100 µM (inactive) | > 100 µM (inactive) | > 100 µM (inactive) | 19.8 µM (inactive) | > 100 µM (inactive) | 8.45 µM (inactive) | 27.5 µM (inactive) | 18.8 µM (inactive) | > 100 µM (inactive) | 22.4 µM (inactive) | 16.7 µM (inactive) | 37.7 µM (inactive) | 47.9 µM (inactive)
C[C@@H]1CC[C@@]2(C)[C@H](C)/C(=C\COC(=O)/C=C/c3ccc(O)c(O)c3)CC[C@@]12C [NAVICULYL CAFFEATE] | 4.37 µM (inactive) | 7.62 µM (inactive) | 4.19 µM (inactive) | – | 4.1 µM | 3.94 µM (inactive) | 3.95 µM (inactive) | 2.26 µM (inactive) | 8.63 µM (inactive) | 18 µM (inactive) | 8.87 µM (inactive) | 5.15 µM (inactive) | 11.9 µM (inactive) | 3.5 µM (inactive) | 5.35 µM (inactive) | 11.8 µM (inactive) | 10.3 µM (inactive) | 11.5 µM (inactive) | 4.58 µM (inactive) | 7.8 µM (inactive)
Nc1nc(Cl)nc(NCc2ccccc2)n1 | > 100 µM (inactive) | > 100 µM (inactive) | > 100 µM (inactive) | – | > 100 µM | > 100 µM (inactive) | > 100 µM (inactive) | > 100 µM (inactive) | > 100 µM (inactive) | > 100 µM (inactive) | > 100 µM (inactive) | > 100 µM (inactive) | > 100 µM (inactive) | > 100 µM (inactive) | > 100 µM (inactive) | > 100 µM (inactive) | > 100 µM (inactive) | > 100 µM (inactive) | > 100 µM (inactive) | > 100 µM (inactive)
C=C1C(C2(C)C=CC(=O)OC3(C)COC(=O)CC32)C(OC=O)C(OC(=O)C(O)C(C)CC)C2(C)C(c3ccoc3)CC(OC(C)=O)C12O (centres undefined) | > 100 µM (inactive) | > 100 µM (inactive) | 75.9 µM (inactive) | – | 84.3 µM | 32.8 µM (inactive) | 34 µM (inactive) | > 100 µM (inactive) | > 100 µM (inactive) | > 100 µM (inactive) | 84.1 µM (inactive) | 35 µM (inactive) | 50.5 µM (inactive) | > 100 µM (inactive) | > 100 µM (inactive) | > 100 µM (inactive) | 35.6 µM (inactive) | > 100 µM (inactive) | > 100 µM (inactive) | > 100 µM (inactive)
O=C1C(c2c(O)[nH]c3ccc(Br)cc23)=Nc2ccc(Br)cc21 | 24 µM (inactive) | 32.7 µM (inactive) | > 100 µM (inactive) | – | 43 µM | 48.4 µM (inactive) | 44.2 µM (inactive) | 45 µM (inactive) | > 100 µM (inactive) | > 100 µM (inactive) | > 100 µM (inactive) | > 100 µM (inactive) | 19.7 µM (inactive) | 72.9 µM (inactive) | 18.7 µM (inactive) | > 100 µM (inactive) | > 100 µM (inactive) | 30.1 µM (inactive) | > 100 µM (inactive) | 34 µM (inactive)
O=C(CN(c1ccc(S(=O)(=O)O)cc1)c1ccc(S(=O)(=O)O)cc1)Nn1cnc2ccc(S(=O)(=O)N(c3ccc(S(=O)(=O)O)cc3)c3ccc(S(=O)(=O)O)cc3)cc2c1=O | > 100 µM (inactive) | > 100 µM (inactive) | > 100 µM (inactive) | – | > 100 µM | > 100 µM (inactive) | > 100 µM (inactive) | > 100 µM (inactive) | > 100 µM (inactive) | > 100 µM (inactive) | > 100 µM (inactive) | > 100 µM (inactive) | > 100 µM (inactive) | > 100 µM (inactive) | > 100 µM (inactive) | > 100 µM (inactive) | > 100 µM (inactive) | > 100 µM (inactive) | > 100 µM (inactive) | > 100 µM (inactive)
